According to article PMC4826920 (Evidence-based Complementary and Alternative Medicine : eCAM, 2016):

How the values were obtained:
[1] = molecular target: T1, recombinant human MAO-B (hMAO-B) (Homo sapiens, UniProt P27338); experiment: MAO-Glow luminescence assay, hMAO-B inhibition; type: biochemical
T1 construct: purchased Sigma-Aldrich
T1 sequence (P27338 1-520): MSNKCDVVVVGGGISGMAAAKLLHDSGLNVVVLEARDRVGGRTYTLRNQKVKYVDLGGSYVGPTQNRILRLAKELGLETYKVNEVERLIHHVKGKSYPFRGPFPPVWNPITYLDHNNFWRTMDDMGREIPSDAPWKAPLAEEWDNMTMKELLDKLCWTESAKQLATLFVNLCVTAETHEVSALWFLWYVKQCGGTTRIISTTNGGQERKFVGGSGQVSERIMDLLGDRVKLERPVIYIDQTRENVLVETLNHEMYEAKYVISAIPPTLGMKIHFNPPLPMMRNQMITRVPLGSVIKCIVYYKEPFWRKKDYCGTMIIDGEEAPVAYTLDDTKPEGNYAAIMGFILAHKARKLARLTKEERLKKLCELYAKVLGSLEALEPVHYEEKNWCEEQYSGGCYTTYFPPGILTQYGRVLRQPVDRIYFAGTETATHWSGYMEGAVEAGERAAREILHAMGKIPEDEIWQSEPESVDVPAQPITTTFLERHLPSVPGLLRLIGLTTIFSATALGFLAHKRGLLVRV
Experimental: (§1) IC50 values were determined by nonlinear regression best-fit model of normalized response with variable slope. The inhibitor constant (K i) values were obtained from the competitive inhibition model. Lineweaver-Burk plot was obtained from Michaelis-Menten data. Relative selectivity (RS) folds were defined by the ratio of hMAO-A IC50 to hMAO-B IC50. The significance of the difference between two groups was determined using an unpaired t-test, between the control and treatments using one-way ANOVA followed by Dunnett's multiple comparisons tests and between two sets of data using two-way ANOVA followed by Sidak's multiple comparisons test.

rat MAO = settings: cited from earlier work
[2] = molecular target: T2, recombinant human MAO-A (hMAO-A) (Homo sapiens, UniProt P21397); experiment: MAO-Glow luminescence assay, hMAO-A inhibition; type: biochemical; settings: up to 250 μM tested
T2 construct: purchased Sigma-Aldrich
T2 sequence (P21397 1-527): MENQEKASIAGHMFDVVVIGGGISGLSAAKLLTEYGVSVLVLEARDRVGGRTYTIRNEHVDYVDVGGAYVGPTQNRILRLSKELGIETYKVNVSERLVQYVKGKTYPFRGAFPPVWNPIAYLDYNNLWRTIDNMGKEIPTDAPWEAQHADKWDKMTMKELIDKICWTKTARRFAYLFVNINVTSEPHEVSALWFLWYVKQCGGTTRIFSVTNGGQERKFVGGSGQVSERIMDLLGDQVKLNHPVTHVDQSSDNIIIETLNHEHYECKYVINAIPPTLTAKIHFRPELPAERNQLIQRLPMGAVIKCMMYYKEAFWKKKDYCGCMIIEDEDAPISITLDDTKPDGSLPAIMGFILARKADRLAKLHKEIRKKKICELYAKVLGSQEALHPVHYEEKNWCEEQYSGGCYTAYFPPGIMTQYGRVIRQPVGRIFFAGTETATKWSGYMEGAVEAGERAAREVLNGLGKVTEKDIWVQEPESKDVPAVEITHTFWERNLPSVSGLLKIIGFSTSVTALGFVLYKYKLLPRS
Experimental: as §1, with “All analyses were performed by GraphPad Prism Software 6.02 (San Diego, CA, USA). IC50 values” for “IC50 values”

hMAO-A [3] = molecular target: T3, hMAO-A (Homo sapiens, UniProt P21397); experiment: Michaelis-Menten kinetics (mode of inhibition), hMAO-A; type: biochemical
T3 construct: purchased Sigma-Aldrich
T3 sequence (P21397 1-527): T2 sequence (P21397 1-527)
Experimental: (§2) After 1.5 h of incubation, RLDR was added, and the luminescence signal was detected as mentioned in the hMAO-A and hMAO-B assay.
as §1, with “All analyses were performed by GraphPad Prism Software 6.02 (San Diego, CA, USA). IC50 values” for “IC50 values”

bovine plasma MAO = test system: bovine plasma MAO; design: method as in PMID 1913999; settings: cited from earlier work
hMAO-B [4] = molecular target: T4, hMAO-B (Homo sapiens, UniProt P27338); experiment: Recovery by dilution assay, hMAO-B; type: biochemical
T4 construct: purchased Sigma-Aldrich
T4 sequence (P27338 1-520): T1 sequence (P27338 1-520)
Experimental: (§3) The microplates were then incubated for 30, 40, 50, and 60 min. RLDR was added, and luminescence was measured as mentioned above.

[5] = oral 54 mg/day, postmenopausal women; cited from earlier work
hMAO-B [6] = molecular target: T4, hMAO-B; experiment: Michaelis-Menten kinetics (mode of inhibition), hMAO-B; type: biochemical
Experimental: as §2, §1

hMAO-A [7] = molecular target: T3, hMAO-A; experiment: Recovery by dilution assay, hMAO-A; type: biochemical
Experimental: as §3

[8] = 40 min preincubation at 10x IC50, 100-fold dilution, vs negative control
[9] = 40 min preincubation at 100x IC50, 100-fold dilution, vs negative control
[10] = up to 60 min at RT, maximum 100x IC50

SMILES | hMAO-B inhibitory effect ([1]; up to 250 μM tested) | Rat MAO inhibition (rat MAO) | hMAO-A inhibitory effect [2] | hMAO-B potency as % of DEP potency ([1]; from IC50 values) | Change in Vmax, hMAO-A (hMAO-A [3]; GST 5, 10, 20 μM, p = 0.10) | Mode of hMAO-A inhibition (hMAO-A [3]; Lineweaver-Burk, LDS substrate) | Bovine plasma MAO inhibition (bovine plasma MAO) | hMAO-B residual catalytic rate after dilution to 0.1x IC50 (hMAO-B [4]; [8]) | hMAO-B residual catalytic rate after dilution to 1x IC50 (hMAO-B [4]; [9]) | Reversibility of hMAO-B inhibition (hMAO-B [4]; [10]) | Steady-state level [5] | Change in Vmax, hMAO-B (hMAO-B [6]; GST 5, 10, 20 μM, p = 0.44) | Mode of hMAO-B inhibition (hMAO-B [6]; Lineweaver-Burk, LDS substrate) | hMAO-B Ki lower than hMAO-A Ki (hMAO-B [6]; ratio of Ki values) | hMAO-A residual catalytic rate after dilution to 0.1x IC50 (hMAO-A [7]; [8]) | hMAO-A residual catalytic rate after dilution to 1x IC50 (hMAO-A [7]; [9]) | Reversibility of hMAO-A inhibition (hMAO-A [7]; [10])
O=c1c(-c2ccc(O)cc2)coc2cc(O)ccc12 [DZ, Daidzein] | minor or partial inhibitory effect | no significant rat MAO inhibition | minor or partial inhibitory effect | – | – | – | – | – | – | – | – | – | – | – | – | – | –
O=c1c(-c2ccc(O)cc2)coc2cc(O)cc(O)c12 [GST, Genistein] | – | – | – | 1.4% | no significant change | competitive | weak bovine plasma MAO inhibition | 86.1% | 47.1% | reversible inhibitor | up to 1.00 μM | no significant change | competitive | 3.0 fold | 86.8% | 42.3% | reversible inhibitor
